Columns and labels:
mouse vas deferens = assay: electrically stimulated mouse vas deferens (MVD) ED50; format: cell-based; conditions: ED50, inhibition of electrically induced contractions
human mu opioid receptor = molecular target: T1, human mu opioid receptor (Homo sapiens, UniProt P35372); assay: radioligand binding, human mu opioid receptor, CHO cell membranes; conditions: species not given, read-out: μ
T1 construct: purchased Perkin Elmer, Boston, Mass; 6110535; host or cells: CHO cells

human delta receptor = molecular target: T2, human delta receptor (Homo sapiens, UniProt P41143); assay: radioligand binding, human delta receptor, HEK-293 cell membranes; conditions: cell not marked (rat), species not given, read-out: δ
T2 construct: purchased Perkin Elmer, Boston, Mass; 6110549; host or cells: HEK-293 cells

[1] = system: seizure-like convulsions in mice; assay: mouse seizure-like convulsions; format: in vivo; conditions: 10 mg/kg IV
Protocol: Mouse Seizure-Like Convulsions and antinociception: The central (CNS) effects of the compound were tested with central delta receptor mediated seizure-like convulsions and central mu opioid receptor mediated antinociceptive effects in mice. Male CD-1 mice (Charles River, Raleigh, N.C.) weighing 20-25 g were used to determine the seizure-like convulsion and antinociception activities for compounds.
They were then observed for seizure-like convulsions for one hour following the treatment. A seizure-like event was recorded if a mouse had uncontrollable clonic (or tonic/clonic) muscle movements that encompassed its entire body, usually followed by a brief cataleptic period. Catalepsy was determined by placing the animal's front paws on a horizontal bar held 2-3 inches from the cage floor. Cataleptic animals made no attempt to remove their paws.

T2 sequence (P41143 whole entry): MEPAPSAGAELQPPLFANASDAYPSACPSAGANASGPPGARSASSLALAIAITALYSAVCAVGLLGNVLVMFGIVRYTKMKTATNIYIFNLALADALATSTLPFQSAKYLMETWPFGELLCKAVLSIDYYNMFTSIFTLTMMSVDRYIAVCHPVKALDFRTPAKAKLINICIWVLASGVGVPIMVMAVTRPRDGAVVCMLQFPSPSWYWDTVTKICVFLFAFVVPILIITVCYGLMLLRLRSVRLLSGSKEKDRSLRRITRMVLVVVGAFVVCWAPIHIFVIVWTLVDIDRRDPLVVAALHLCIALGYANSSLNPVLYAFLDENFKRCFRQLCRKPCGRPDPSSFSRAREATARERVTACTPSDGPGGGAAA
T1 sequence (P35372 whole entry): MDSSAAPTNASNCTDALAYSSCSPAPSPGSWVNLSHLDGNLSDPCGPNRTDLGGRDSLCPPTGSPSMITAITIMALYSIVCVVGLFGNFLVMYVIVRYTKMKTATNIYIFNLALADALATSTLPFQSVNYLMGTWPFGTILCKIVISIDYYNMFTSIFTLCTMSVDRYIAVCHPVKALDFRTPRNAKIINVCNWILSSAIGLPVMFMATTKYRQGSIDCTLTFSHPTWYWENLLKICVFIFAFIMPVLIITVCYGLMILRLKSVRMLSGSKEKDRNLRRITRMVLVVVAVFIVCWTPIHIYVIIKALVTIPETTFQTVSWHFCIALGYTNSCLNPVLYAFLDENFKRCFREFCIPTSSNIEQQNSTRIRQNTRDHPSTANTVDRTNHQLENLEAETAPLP

Structure (SMILES) | EC50 (mouse vas deferens) | Ki (human mu opioid receptor) | Ki (human delta receptor) | Seiz. [1]
C=CCN1C[C@H](C)N([C@@H](c2cccc(O)c2)c2cccc(C(=O)N3CCN(C(=O)OCC)CC3)c2)C[C@H]1C [Example 57, 4-{3-[(R)-((2S,5R)-4-Allyl-2,5-dimethylpiperazin-1-yl)(3-hydroxy-phenyl)methyl]benzoyl}piperazine-1-carboxylic acid ethyl ester] | 5.15 nM | 0.8 nM | 0.81 nM | 40% 10 mg/kg IV
C=CCN1C[C@H](C)N([C@@H](c2cccc(O)c2)c2cccc(C(=O)N3CCNCC3)c2)C[C@H]1C [Example 58, {3-[(R)-((2S,5R)-4-Allyl-2,5-dimethyl-piperazin-1-yl)-(3-hydroxy-phenyl)-methyl]-phenyl}-piperazin-1-yl-methanone] | 12.1 nM | 1.1 nM | 5.1 nM | 0% 10 mg/kg IV
CCOC(=O)N1CCN(C(=O)c2cccc([C@H](c3cccc(O)c3)N3C[C@@H](C)N(Cc4ccccc4)C[C@@H]3C)c2)CC1 [Example 62, 4-{3-[(R)-((2S,5R)-4-Benzyl-2,5-dimethyl-piperazin-1-yl)-(3-hydroxy-phenyl)-methyl]-benzoyl}-piperazine-1-carboxylic acid ethyl ester] | 6.78 nM | 1.7 nM | 2.2 nM | 70% 10 mg/kg IV
C=CCN1C[C@H](C)N([C@@H](c2cccc(O)c2)c2cccc(C(=O)N3CCN(CC(=O)OCC)CC3)c2)C[C@H]1C [Example 63, (4-{3-[(R)-((2S,5R)-4-Allyl-2,5-dimethyl-piperazin-1-yl)-(3-hydroxy-phenyl)-methyl]-benzoyl}-piperazin-1-yl)-acetic acid ethyl ester] | 7.71 nM | 0.47 nM | 0.44 nM | 20% 10 mg/kg IV
C=CCN1C[C@H](C)N([C@@H](c2cccc(O)c2)c2cccc(C(=O)N3CCN(CC(=O)O)CC3)c2)C[C@H]1C [Example 64, (4-{3-[(R)-((2S,5R)-4-Allyl-2,5-dimethyl-piperazin-1-yl)-(3-hydroxy-phenyl)-methyl]-benzoyl}-piperazin-1-yl)-acetic acid] | 5.18 nM | 9 nM | 0.79 nM | 30% 10 mg/kg IV
C=CCN1C[C@H](C)N([C@@H](c2cccc(O)c2)c2cccc(C(=O)N3CCN(CCC(=O)OCC)CC3)c2)C[C@H]1C [Example 72, 3-(4-{3-[(R)-((2S,5R)-4-Allyl-2,5-dimethyl-piperazin-1-yl)-(3-hydroxy-phenyl)-methyl]-benzoyl}-piperazin-1-yl)-propionic acid ethyl ester] | 8.03 nM | 2.4 nM | 0.61 nM | 20% 10 mg/kg IV
C=CCN1C[C@H](C)N([C@@H](c2cccc(O)c2)c2cccc(C(=O)N3CCN(CCC(=O)O)CC3)c2)C[C@H]1C [Example 73, 3-(4-{3-[(R)-((2S,5R)-4-Allyl-2,5-dimethyl-piperazin-1-yl)-(3-hydroxy-phenyl)-methyl]-benzoyl}-piperazin-1-yl)-propionic acid] | 2.28 nM | 17.1 nM | 2.6 nM | 0% 10 mg/kg IV
C=CCN1C[C@H](C)N([C@@H](c2cccc(O)c2)c2cccc(C(=O)N3CCN(CCCC(=O)OCC)CC3)c2)C[C@H]1C [Example 74, (4-{3-[(R)-((2S,5R)-4-Allyl-2,5-dimethyl-piperazin-1-yl)-(3-hydroxy-phenyl)-methyl]-benzoyl}-piperazin-1-yl)-butyric acid ethyl ester] | 23.3 nM | 1.95 nM | 123 nM | 10% 10 mg/kg IV
C[C@@H]1CN([C@@H](c2cccc(O)c2)c2cccc(C(=O)N3CCN(CCCC(=O)O)CC3)c2)[C@@H](C)CN1CC1CC1 [Example 78, 4-(4-{3-[(R)-((2S,5R)-4-Cyclopropylmethyl-2,5-dimethyl-piperazin-1-yl)-(3-hydroxy-phenyl)-methyl]-benzoyl}-piperazin-1-yl)-butyric acid] | 26.6 nM | 194 nM | 10.2 nM | 0% 10 mg/kg IV

Reference: US7683168B2, “Compositions of novel opioid compounds and method of use thereof” (priority 2005, dated 2010)
